{"source": "patent US20230346735A1", "about": "“Nutritional Composition Comprising Carnitine and Method for Treating or Preventing an Infection in a Mammal” (priority 2020, published 2023)", "test_system": "ACE-2", "test": "ACE-2 surface protein in Calu-3 cells, flow cytometry", "format": "cell-based, human", "details": "Calu-3, 100, 500 and 1000 µM, less than L-carnitine", "description": "ACE-2 surface expression protein in Calu-3 cells was evaluated using FACS flow cytometry sorting. […] Cells were detached with PBS/EDTA at room temperature. FBS-containing growth media was added to cells to inactivate TE. Cells were spun for 5 min at […]. Supernatant was removed and cells were washed twice in flow buffer (PBS+0.2% FBS). Between 100,000-200,000 cells were stained for ACE-2 and BST2 (absent in Calu-3and used as a control) for 30 min on ice using goat anti-ACE-2 (R&D Systems; AF933) and PE-conjugated BST2 (BioLegend; Cat # 348406). Cells were washed once and stained with Alexa Fluor 647 donkey anti-goat for 30 min on ice. Cells were washed once, resuspended in PBS/EDTA and samples were acquired on a FACS LSR Fortessa cytometer (BD Bioscience). Data were analyzed using Flowjo (Version 10.1).\nThe testing was repeated with D-Carnitine as well. Cells were either stained for ACE2 using either anti-ACE2 Ab, anti-BST2 Ab or the combination or both followed by secondary Ab isotype. […] The table represents the fluorescence counts.", "data": [{"smiles": "C[N+](C)(C)C[C@@H](O)CC(=O)[O-]", "note": "[D-carnitine]", "values": [{"measurement": "ACE-2 surface protein levels", "value": "decreased significantly"}]}]}
